Assay results as given in patent US20170184612A1, “USE OF LEUKOCYTES AND NOVEL BIOMARKERS IN THE DIAGNOSIS, CONFIRMATION, AND TREATMENT OF A NEUROLOGICAL DISORDER” (The Trustees of Columbia University in the City of New York, priority 2014, published 2017).

Legend:
Type in all cases: cell-based, human
[1] = tested on: peripheral blood mononuclear cells (PBMC), T cells; assay: ELISpot assay, gamma-interferon release (SFC) after stimulation with a-synuclein epitope pools; details: for Pool +: IFNg, Pool Stimulated, number of donors with a positive response, Donors tested 1; for IFNg Peptide + (donors positive to the peptide): of donors tested (peptide); for IFNg Peptide +: number of donors positive to the single peptide
Procedure, shortened: (§1)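 Samples came from 44 PD patients and 24 matched controls, tested blindly. Their PBMC were stimulated for 22 hours at 37 C with α-synuclein peptide pools, and pools that responded were resolved into individual epitopes.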

[2] = tested on: peripheral blood mononuclear cells (PBMC), T cells; assay: ELISpot assay, IL-5 release (SFC) after stimulation with a-synuclein epitope pools; details: for IL-g Peptide + (donors positive to the peptide): of donors tested (peptide); for IL-g Peptide +: number of donors positive to the single peptide
Procedure, shortened: as §1

[3] = tested on: peripheral blood mononuclear cells (PBMC), T cells; assay: ELISpot assay, IFNg and IL-5 reactivity combined, T cell response to α-syn epitopes; details: PD patients, region including Y39
Experimental: Blood from age matched controls and PD patients were obtained and mononuclear cells were isolated by gradient centrifugation.
Release of the cytokines gamma-interferon, which measures activation of CD4+ and/or CD8+ T cells, and the interleukin, IL-5, which measures activation of CD4+ T cells was measured by ELISpot assay. […] After 22 hours of stimulation at 37 C, the cells were removed and release of cytokines was measured by colorimetric detection of spot-forming cells (SFC). Confirmed release of cytokine is determined by the presence of a minimum of 20 SFC per million cells.
The binding algorithms in SubAim 1 predict how well the peptides would bind to MHC if present, but not if they are present in patients. To determine this, the presence of T cell response against the candidate antigens by patient blood-derived peripheral blood mononuclear cells (PBMC) is assessed by ELISPOT assays upon stimulation with the peptides. This assay detects and quantifies cytokine release (in this case, IFNγ and IL-5) from specific activated T cells.
Data were obtained from blood samples (25 ml) from 44 PD patients and 24 age-matched controls. The experiments were conducted blindly. PBMCs from these samples were isolated and exposed to pools comprising the 122 candidate class I and class II antigens and phosphorylated S129 epitopes generated in Subaim 1. For the PBMCs responsive to the pooled peptides, the response was then deconvoluted to identify individual epitopes.
PMBC fractions are recovered by standard methods with Ficoll gradient and T cells expansion (Oseroff et al., 2010). The methods for the analysis of T cell reactions and measurement of cytokines production using the enzyme-linked immunosorbent spot (ELISPOT) assay are published in analogous experiments to discover antigens in multiple sclerosis (Lolli et al., 2013) and in hay fever allergens (Oseroff et al., 2010). T cell responses are determined by measuring IFNγ and IL-5 release by ELISPOT. Statistical analysis of differences between populations is expected to be non-parametric and analyzed with the U-Mann-Whitney test. If there were a normal distribution of response, which is a priori unlikely as some patients have no T cell response, with an SD=1, 8 patients per group would be required to provide a p>90% that the study detect a >2 fold difference at a two-sided 0.05 significance level.

[4] = Patients Summary, PD patients, single peptide
[5] = second 'Pool Stimulated' section (from r296), 12 donors tested
[6] = peptide + / donors tested (peptide), second 'Pool Stimulated' section (from r296), 12 donors tested
[7] = single peptide, second 'Pool Stimulated' section (from r296), 12 donors tested

Substance	Pool + [1]	IFNg Peptide + (donors positive to the peptide) ([1]; Patients Summary, PD patients)	IFNg Response Frequency [1, 4] [%]	IFNg Total SFC [1, 4] [SFC]	IFNg Peptide + [1, 5]	IFNg Response Frequency [1, 6] [%]	IFNg Avg SFC [1, 7] [SFC]	IFNg Total SFC [1, 7] [SFC]	IL-g Peptide + (donors positive to the peptide) ([2]; Patients Summary, PD patients)	IL-g Response Frequency [2, 4] [%]	IL-g Total SFC [2, 4] [SFC]	IL-g Peptide + [2, 5]	IL-g Response Frequency [2, 6] [%]	IL-g Total SFC [2, 7] [SFC]	IFNg Avg SFC [1, 4] [SFC]	IL-g Avg SFC [2, 4] [SFC]	IL-g Avg SFC [2, 7] [SFC]	epitope identified by deconvolution of T cell response, in words [3]
3521.0072 (EGVVHGVTTVAEKTK; listed as Homo sapiens)	1	0	0	0	1	50	93.3	93.3	0	0	0	0	0	0	–	–	–	–
3521.0073 (TTVAEKTKEQVTNVG; listed as Homo sapiens)	1	0	0	0	0	0	–	0	0	0	0	0	0	0	–	–	–	–
3521.0075 (KQGVAEAPGKTKEGV; listed as Homo sapiens)	1	3	38	209	0	0	–	0	1	13	58	1	50	147	70	58	147	–
3521.0076 (PGKTKEGVLYVGSKT; listed as Homo sapiens)	1	2	25	80	1	50	300	300	1	13	89	1	50	120	40	89	120	–
3521.0077 (KTKEGVLYVGSKTKK; listed as Homo sapiens)	1	5	63	3505	2	100	1510	3020	6	75	3565	2	100	1814	701	595	3907	–
3521.0078 (YVGSKTKKGVVHGVA; listed as Homo sapiens)	0	1	17	474	–	–	–	–	1	17	93	–	–	–	474	93	–	–
3521.0079 (KGVVHGVATVAEKTK; listed as Homo sapiens)	1	0	0	0	0	0	–	0	0	0	0	1	50	284	–	–	284	–
3521.0084 (YVGSKTKEGVVHGVA; listed as Homo sapiens)	0	0	0	0	–	–	–	–	0	0	0	–	–	–	–	–	–	–
3521.0085 (EGVVHGVATVAEKTK; listed as Homo sapiens)	1	0	0	0	0	0	–	0	0	0	0	1	50	80	–	–	80	–
3521.0086 (ATVAEKTKEQVTNVG; listed as Homo sapiens)	1	0	0	0	0	0	–	0	0	0	0	0	0	0	–	–	–	–
GVLYVGSKTK (listed as Homo sapiens)	–	–	–	–	–	–	–	–	–	–	–	–	–	–	–	–	–	antigenic
VLYVGSKTK (listed as Homo sapiens)	–	–	–	–	–	–	–	–	–	–	–	–	–	–	–	–	–	antigenic
